Reference: ChEMBL document CHEMBL5728326, “Aminopyridine derivatives and their use as selective ALK-2 inhibitors” (2021)

Columns and labels:
[1] = biological target: Activin receptor type-1-like (Homo sapiens, UniProt P37023)
[2] = biological target: Bone morphogenetic protein receptor type-1B (Homo sapiens, UniProt O00238)
Bone morphogenetic protein receptor type-1B, sequence (O00238 14-502 limits assumed, change not shown): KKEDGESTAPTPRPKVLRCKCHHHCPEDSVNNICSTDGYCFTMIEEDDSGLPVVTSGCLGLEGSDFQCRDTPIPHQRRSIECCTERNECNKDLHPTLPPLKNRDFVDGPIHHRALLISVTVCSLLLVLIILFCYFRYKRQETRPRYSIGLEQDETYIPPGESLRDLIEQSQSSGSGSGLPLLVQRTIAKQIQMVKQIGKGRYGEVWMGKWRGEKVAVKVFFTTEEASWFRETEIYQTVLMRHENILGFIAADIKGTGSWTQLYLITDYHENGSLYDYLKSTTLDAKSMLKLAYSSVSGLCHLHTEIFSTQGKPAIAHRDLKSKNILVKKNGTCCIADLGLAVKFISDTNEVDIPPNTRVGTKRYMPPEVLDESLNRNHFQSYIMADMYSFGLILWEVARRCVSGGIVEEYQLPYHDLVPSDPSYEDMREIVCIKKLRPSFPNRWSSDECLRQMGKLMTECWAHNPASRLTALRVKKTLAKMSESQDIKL

Activin receptor type-1-like, sequence (P37023 22-503 limits assumed, change not shown): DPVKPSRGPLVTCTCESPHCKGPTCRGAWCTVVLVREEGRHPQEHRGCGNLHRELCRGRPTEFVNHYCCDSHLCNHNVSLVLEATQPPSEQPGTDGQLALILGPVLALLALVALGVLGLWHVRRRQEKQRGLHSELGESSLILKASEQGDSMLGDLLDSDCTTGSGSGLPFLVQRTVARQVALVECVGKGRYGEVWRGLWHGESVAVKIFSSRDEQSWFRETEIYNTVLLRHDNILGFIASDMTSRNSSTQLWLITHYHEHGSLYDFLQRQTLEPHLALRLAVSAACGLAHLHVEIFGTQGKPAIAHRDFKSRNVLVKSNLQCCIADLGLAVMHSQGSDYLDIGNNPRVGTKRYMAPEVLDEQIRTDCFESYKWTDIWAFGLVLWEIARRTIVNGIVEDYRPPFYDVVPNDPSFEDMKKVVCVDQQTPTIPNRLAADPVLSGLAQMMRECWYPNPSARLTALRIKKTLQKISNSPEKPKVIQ

NC(=O)c1ccc(-c2cnc(N)c(C(=O)N[C@H]3CC[C@@H](O)CC3)c2)cc1
IC50 [1]: 0.89 µM
IC50 [2]: 10 µM
